Data on two compounds can be found in patent publication US4107188A, “Pregnanes” (Hoffmann-La Roche Inc., priority 1977, dated 1978).

The nature of assay [1]: 4-14C-cholesterol appearance in thoracic duct lymph of rats after oral administration. Format: in vivo, female albino rats (Charles River). The note with it: 100 mg orally, female albino rats, vs Na-TC control. On the procedure:
The lowering of the cholesterol levels in mammals by the administration of the compound of formula I-B can be seen from the fact that when 100 mg of 7-(3alpha, 12alpha-dihydroxy-5beta-pregnane-20-yl)-3,5-heptadienoic acid was administered orally to female albino rats, the cholesterol level in the lymph was decreased after administration by 60% over the first 8 hours and 91% over the next 9 to 24 hr. period after administration as compared to the control. In this procedure, female albino rats (Charles River), weighing 300 ± 10 g were kept on a Purina chow diet ad libitum until the time of operation. […] This preparation enabled the production of lymph at a constant rate, the infusion of a bile salt, and the simultaneous collection of bile. All animals received, after operation, a continuous duodenal infusion of sodium taurocholate (Na-TC) in 0.85% NaCl. One day after operation, the rats were given, by stomach intubation, an emulsion containing about 4% triolein, 20 μC of 4-^14 C-cholesterol (Specific Activity 61.7 mC/mM, 159 μ C/mg), 2 mg of cholesterol, in addition to protein, carbohydrate, and saline. Both the Na-TC and the cholesterol carrier employed gave a single spot on either thin layer or glass fiber chromatograph so no further purification was attempted. […] An aliquot of the lipid extract was placed on a small piece of glass fiber paper and counted. […]

Another assay deals with T1, rat pancreatic lipase (Rattus norvegicus, UniProt P27657).
T1 sequence (P27657 17-465): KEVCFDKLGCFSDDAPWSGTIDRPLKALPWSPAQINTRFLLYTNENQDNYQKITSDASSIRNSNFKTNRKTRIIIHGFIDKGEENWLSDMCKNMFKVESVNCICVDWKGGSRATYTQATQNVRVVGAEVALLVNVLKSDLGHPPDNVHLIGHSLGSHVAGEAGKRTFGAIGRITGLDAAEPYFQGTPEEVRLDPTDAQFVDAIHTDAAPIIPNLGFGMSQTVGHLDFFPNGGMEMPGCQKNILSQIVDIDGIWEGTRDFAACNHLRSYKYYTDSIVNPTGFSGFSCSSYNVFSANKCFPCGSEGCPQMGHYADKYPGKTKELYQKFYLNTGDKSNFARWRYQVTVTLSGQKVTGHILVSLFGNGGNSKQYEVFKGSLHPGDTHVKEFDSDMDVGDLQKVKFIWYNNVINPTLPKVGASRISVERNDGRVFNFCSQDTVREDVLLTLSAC
The assay can be described thus: Inhibition of rat pancreatic lipase activity in vitro. The note with it: 14C-triolein emulsion, pH 8.6, 20 min. at 37° C. It counts as biochemical. On the procedure: Dietary long-chain triglycerides must be hydrolyzed by pancreatic lipase in the duodenum before absorption can occur. […] The capacity of compounds of formula I to inhibit rat pancreatic lipase in vitro is seen by the action of the following compounds:
The ability of compounds to inhibit rat pancreatic lipase is determined by analyzing the nmoles of free fatty acid [oleic acid] released from [^14 C]-triolein. Compounds of A and B are added to an emulsion consisting of: 200,000 dmp ^14 C-triolein, 7.5 mg triolein, 0.75 mg sodium taurocholate, 15 mg bovine serum albumin and 0.9 ml 0.2 M tris-HCl - 0.15 M NaCl, pH 8.6, per assay. Water and/or pancreatic lipase is added to make an assay volume of 1.0 ml. The emulsion is incubated for 20 min. at 37° C in a shaking water bath. The reaction is stopped by the addition of isopropanol; H2 SO4 (40:1). The lipids are extracted twice with 3 ml volumes of hexane. The liberated fatty acids are extracted with 2 ml of 0.1 N aqueous KOH in 50% methanol. A 1 ml aliquot of the KOH layer is paced in a scintillation vial with 10 ml of 2,5-bis-2-(5-tertiarybutyl benzoxazolyl)thiophene. The radioactivity is determined by a scintillation counter. Data are expressed as nmoles free fatty acid [oleic acid] releated.

In general, Ki refers to the dissociation constant of the complex between target and ligand, obtained from inhibition or displacement. High values mean weaker binding, low ones tighter binding. With `C[C@H](C/C=C/C=C/CC(=O)O)[C@H]1CC[C@H]2[C@@H]3CC[C@@H]4C[C@H](O)CC[C@]4(C)[C@H]3C[C@H](O)[C@]12C` [Compound A, 7(3α,12α-dihydroxy-5β-pregnane-20-yl)-3,5-heptadienoic acid], the figures for the “decrease of cholesterol level in the lymph as compared to the control” value in assay [1] (9 to 24 hr. period after administration) and in assay [1] (over the first 8 hours after administration) were 91% and 60%, respectively. The Ki on rat pancreatic lipase came out at 1 mM.

Compound `CC(CCCCC(=O)O)[C@H]1CC[C@H]2[C@@H]3CC[C@@H]4C[C@H](O)CC[C@]4(C)[C@H]3C[C@H](O)[C@]12C` (stereo partly drawn) [Compound B, 5-(3α,12α-dihydroxy-5βpregnane-20-yl)pentanoic acid] displayed a Ki at rat pancreatic lipase of 9 mM.
